Test results published in US20180235221A1 (priority 2015, published 2018).
Read-outs that look alike come from different tables or passages of the source.

Tested on: Qol resistant Pyricularia oryzae isolate (1328)
Format: cell-based
Conditions: single active compound, MTP, 405 nm, 7 days after inoculation

Structure (SMILES)	Observed efficacy (0.063 ppm) [%]	Observed efficacy (0.25 ppm) [%]	Observed efficacy (0.016 ppm) [%]
CNC(=O)C(=N/OC)/C(C)=C\COc1ccn(-c2ccc(Cl)cc2)n1 [Compound I-1, (Z,2E)-5-[1-(4-chlorophenyl)pyrazol-3-yl]oxy-2-methoxyimino-N,3-dimethyl-pent-3-enamide]	1	65	–
Cn1nnn(-c2cccc(Br)c2COc2ccn(-c3ccc(Cl)cc3)n2)c1=O [II-2, 1-[3-bromo-2-[[1-(4-chlorophenyl)pyrazol-3-yl]oxymethyl]phenyl]-4-methyl-tetrazol-5-one]	–	–	2
CC(=NOCc1c(C)cccc1-n1nnn(C)c1=O)c1cccc(C(F)(F)F)c1 [II-11, -methyl-4-[3-methyl-2-[[1-[3-(trifluoromethyl)-phenyl]-ethylideneamino]oxymethyl]phenyl]tetrazol-5-one]	2	–	–
CNC(=O)C(=N/OC)/C(C)=C\COc1ccn(-c2ccc(Cl)cc2Cl)n1 [Compound I-3, (Z,2E)-5-[1-(2,4-dichlorophenyl)pyrazol-3-yl]oxy-2-methoxyimino-N,3-dimethyl-pent-3-en-amide]	2	54	–
Cn1nnn(-c2cccc(F)c2COc2ccn(-c3ccc(Cl)cc3)n2)c1=O [II-4, 1-[2-[[1-(4-chlorophenyl)pyrazol-3-yl]oxymethyl]-3-fluoro-phenyl]-4-methyl-tetrazol-5-one]	1	–	–
Cn1nnn(-c2cccc(F)c2COc2ccn(-c3ccc(Cl)cc3Cl)n2)c1=O [II-5, 1-[2-[[1-(2,4-dichlorophenyl)pyrazol-3-yl]oxymethyl]-3-fluoro-phenyl]-4-methyl-tetrazol-5-one]	–	44	–
Cc1cccc(-n2nnn(C)c2=O)c1COc1ccn(-c2ccc(Cl)cc2)n1 [II-3, 1-[2-[[1-(4-chlorophenyl)pyrazol-3-yl]oxymethyl]-3-methyl-phenyl]-4-methyl-tetrazol-5-one]	–	–	44
Cn1nnn(-c2cccc(Cl)c2COc2ccn(-c3ccc(Cl)cc3)n2)c1=O [II-1, 1-[3-chloro-2[[1-(4-chlorophenyl)-1H-pyrazol-3-yl]oxymethyl]phenyl]-4-methyl-tetrazol-5-one]	–	–	0
